Laboratory results published in ChEMBL document CHEMBL1201862, “PubChem BioAssay data set” (2004).
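These data come from cells grown in 96-well plates and exposed to compound for 48 hours at five concentrations. The concentration for 50% growth inhibition is given as GI50.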 Active and inactive are the calls of the source. Cut-off read from the data, not from the text of the source: active = GI50 up to about 1.1 µM and inactive = higher.

Key:
Experiment in all cases: DTP human tumour cell line panel, 48 h
786-0 = system: 786-0
CAKI-1 = system: CAKI-1
HCC 2998 = system: HCC 2998
HCT-15 = system: HCT-15
NCI-H23 = system: NCI-H23
OVCAR-3 = system: OVCAR-3
OVCAR-8 = system: OVCAR-8
RXF 393 = system: RXF 393
SK-MEL-5 = system: SK-MEL-5
SW-620 = system: SW-620
TK-10 = system: TK-10
U-251 = system: U-251
UO-31 = system: UO-31
EKVX = system: EKVX
MCF7 = system: MCF7
MDA-MB-435 = system: MDA-MB-435
PC-3 = system: PC-3
RPMI-8226 = system: RPMI-8226
UACC-62 = system: UACC-62

| SMILES | GI50 (786-0) | GI50 (CAKI-1) | GI50 (HCC 2998) | GI50 (HCT-15) [µM] | GI50 (NCI-H23) | GI50 (OVCAR-3) | GI50 (OVCAR-8) | GI50 (RXF 393) | GI50 (SK-MEL-5) | GI50 (SW-620) | GI50 (TK-10) | GI50 (U-251) | GI50 (UO-31) | GI50 (EKVX) | GI50 (MCF7) | GI50 (MDA-MB-435) | GI50 (PC-3) | GI50 (RPMI-8226) | GI50 (UACC-62) |
| --- | --- | --- | --- | --- | --- | --- | --- | --- | --- | --- | --- | --- | --- | --- | --- | --- | --- | --- | --- |
| Cc1ccccc1NC(=O)C(=O)Cc1nc2ccccc2s1 | > 100 µM (inactive) | > 100 µM (inactive) | > 100 µM (inactive) | > 100 | > 100 µM (inactive) | > 100 µM (inactive) | > 100 µM (inactive) | > 100 µM (inactive) | > 100 µM (inactive) | > 100 µM (inactive) | > 100 µM (inactive) | > 100 µM (inactive) | > 100 µM (inactive) |  |  |  |  |  |  |
| CC(=O)Nc1ccc2nc(N)n[n+]([O-])c2c1 | > 100 µM (inactive) | > 100 µM (inactive) |  | > 100 | > 100 µM (inactive) | > 100 µM (inactive) | > 100 µM (inactive) |  | > 100 µM (inactive) | > 100 µM (inactive) | 77.8 µM (inactive) | > 100 µM (inactive) | > 100 µM (inactive) | > 100 µM (inactive) | > 100 µM (inactive) | > 100 µM (inactive) | > 100 µM (inactive) | > 100 µM (inactive) | > 100 µM (inactive) |
| O=C(CSC1=NCCN1)Nc1ccccc1 | 16.1 µM (inactive) | 73.8 µM (inactive) | 23.8 µM (inactive) | 29.2 | 37.6 µM (inactive) | 20.7 µM (inactive) | 29.4 µM (inactive) | 13.8 µM (inactive) |  | 25.8 µM (inactive) | 19.2 µM (inactive) | 18.3 µM (inactive) | 27.4 µM (inactive) | 45.2 µM (inactive) |  | 34.8 µM (inactive) | 19.9 µM (inactive) | 41.2 µM (inactive) | 22.1 µM (inactive) |
| c1ccc2c(c1)nnn2CN1CCOCC1 | > 100 µM (inactive) | 75.7 µM (inactive) |  | > 100 | > 100 µM (inactive) | 28.9 µM (inactive) | 36.3 µM (inactive) | 48.5 µM (inactive) | > 100 µM (inactive) | 28.3 µM (inactive) | > 100 µM (inactive) | > 100 µM (inactive) | > 100 µM (inactive) | > 100 µM (inactive) |  | > 100 µM (inactive) | > 100 µM (inactive) |  | 58.3 µM (inactive) |
| O=C(c1cccnc1)N1N=C(c2ccc3c(c2)OCO3)CC1(O)c1cc(F)c(Cl)cc1Cl (stereo unspecified) | 18.6 µM (inactive) | 28.6 µM (inactive) |  | 18 | 24.9 µM (inactive) | 11 µM (inactive) | 18.8 µM (inactive) | 12.7 µM (inactive) | 15 µM (inactive) | 23.8 µM (inactive) | 39.1 µM (inactive) | 16.7 µM (inactive) | 17.3 µM (inactive) | 20.5 µM (inactive) |  | 27 µM (inactive) | 21.5 µM (inactive) | 27.2 µM (inactive) |  |
| S=C1ON=C(c2ccccc2)/C1=C/Nc1ccccc1 | > 100 µM (inactive) | > 100 µM (inactive) | > 100 µM (inactive) | 78.9 | > 100 µM (inactive) |  | > 100 µM (inactive) | 94.8 µM (inactive) | > 100 µM (inactive) | > 100 µM (inactive) | > 100 µM (inactive) | > 100 µM (inactive) | > 100 µM (inactive) | > 100 µM (inactive) |  |  |  | > 100 µM (inactive) | 3.24 µM (inactive) |
| O=C(O)c1nc2ccccc2nc1Nc1ccc(Cl)c(Cl)c1 | 20.2 µM (inactive) | 33 µM (inactive) | 18.2 µM (inactive) | 13.1 | 17.7 µM (inactive) | 11.5 µM (inactive) | 41.1 µM (inactive) | 25.4 µM (inactive) | 15.7 µM (inactive) | 31.7 µM (inactive) | 42.9 µM (inactive) | 22.1 µM (inactive) | 15.6 µM (inactive) | 33.1 µM (inactive) |  | 28.4 µM (inactive) | 32.6 µM (inactive) | 35.3 µM (inactive) |  |
